Laboratory results published in patent US4749686A, “Combinations of renal vasodilators and α1 -adrenergic or ganglionic blocking agents and methods for treating diseases” (New York Medical College, priority 1986, dated 1988).
Entries after “also recorded” stand apart in the source; their conditions may differ.

Test system: conscious dogs
Assay: one-hour infusion of atriopeptin 24 in conscious dogs, renal hemodynamics and function, before and after α1-adrenergic receptor blockade
Assay type: in vivo, dog
Settings: prazosin 1 mg/kg 40 minutes prior to one-hour atriopeptin 24 infusion
Experimental: In this example, I first infused conscious dogs for one hour with atriopeptin 24 and measured the effects on renal hemodynamics and function. At least one week later, I treated the same dogs with the α1 -adrenergic blocking agent, prazosin, 40 minutes prior to a one-hour atriopeptin 24 infusion.
The experiments were conducted using the following techniques and devices: female mongrel dogs were instrumented using sterile surgical techniques under sodium pentobarbital anesthesia (25 mg/kg). To measure renal blood flow, a Doppler ultrasonic flow transducer (Parks Electronics) was placed around the left renal artery. […]
Arterial pressure was recorded using the implanted catheter attached to a Statham P23Db strain gauge transducer. Renal blood flow was measured using an ultrasonic flowmeter (Model 806A, Parks Electronics) and the implanted Doppler flow transducer. Phasic arterial pressure and renal blood flow were recorded on magnetic tape (Bell and Howell 3700B) and played back on a direct writing oscillograph (Gould-Brush 2800S). […] Heart rate was calculated using a cardiotachometer (Beckman Model 80574) from the pressure pulse interval.
To measure renal function, urine samples were taken from the dogs, urine volume was measured and the concentration of urine and plasma sodium (Na) and potassium (K) was assayed using a flame photometer (Instrumentation Laboratories, Model 343). […]

## COc1cc2nc(N3CCN(C(=O)c4ccco4)CC3)nc(N)c2cc1OC [prazosin]
  effect of α1-adrenergic blockade on renal vasodilation produced by atriopeptin 24: renal blood flow remained elevated for the duration of the atriopeptin 24 infusion; also recorded: caused a sustained renal vasodilation
